# Measured values published in patent US8048455B2, “Treatment of cancer and inflammatory disorder” (Academia Sinica, priority 2006, dated 2011).
# Tests used:
# PGE2 production = test: LPS-induced PGE2 production in RAW 264.7 macrophages; type: cell-based, murine; details: doses between 25 and 75 μg/mL
# Protocol: PGE2 production was determined according to the procedure described in Chiang et al. Br J Pharmacol 2005; 146:352-63. Macrophages were pretreated with aspirin (500 μM, 3 h) to inactivate endogenous cyclooxygenase-1, washed, and incubated with test compounds for 1 hour before further incubation for 16 hours with or without LPS. PGE2 in the culture media was determined with ACE™ Competitive Enzyme Immunoassay (Cayman Chemical).
# The above-mentioned test compounds were incubated with COX-2 enzyme and substrates before measuring the COX-2 activity. Celecoxib, a potent nonsteroidal anti-inflammatory drug (NSAID), was used as a positive control. […] The IC50 of the nonsteroidal anti-inflammatory drug celecoxib, used as a positive control, was 0.47 μg/mL. RAW 264.7 cells (1×10^4 cells/well) were treated with dLGG and then stimulated with LPS, and PGE2 in the culture medium was then measured.
# [1] = test system: LPS binding to LPS receptors on macrophages; test: Binding of FITC-labeled LPS to macrophages; type: cell-based, murine
# COX-2 mRNA = COX-2 mRNA expression (RT-PCR) in LPS-stimulated macrophages; type: cell-based, murine; details: 75 μg/mL
# Protocol: (§1) For each RT-PCR analysis, 2 μg of total RNA isolated with TRIZOL® Reagent was used to synthesize 1st-strand cDNA using […]™ II Reverse Transcriptase (Invitrogen). The iNOS and COX-2 genes were amplified and analyzed using specific oligonucleotide primers and PCR reactions by method described in Chiang et al. Br J Pharmacol 2005; 146:352-63).
# It was further examined whether dLGG affects COX-2 mRNA and protein expression using RT-PCR and immunoblotting. Cells were treated with dLGG for 1 hour, then LPS (1 μg/mL) was added for 18 hours. Total cellular protein (20 μg) was subjected to immunoblotting. Quantification of COX-2 mRNA and protein expression involved normalization to GA3PDH by densitometry.
# NF-κB•DNA complex = test: Electrophoretic mobility shift assay of NF-κB binding to consensus DNA in LPS-stimulated RAW 264.7 cells; type: cell-based, murine; details: for NF-κB•DNA complex, of LPS alone: 90 minutes; for NF-κB•DNA complex level: 75 μg/mL
# Protocol: EMSA was performed with the […]™ Chemiluminescent EMSA kit (Pierce Biotechnology, Rockford, Ill.). […] The DNA-protein complexes were subjected to 5-10% gradient PAGE. Competition assay with unlabeled oligonucleotide (cold DNA) was performed in parallel. […]
# IKKα/β = IKKα/β phosphorylation, IRAK-1 degradation and IKK kinase assay in LPS-stimulated RAW 264.7 cells; type: cell-based, murine
# Protocol: Whole cell lysates (300 μg) of macrophages were pre-cleaned by incubation with 0.25 μg IgG and 20 μL protein A/G plus agarose beads (Santa Cruz) for 30 minutes at 4° C. Supernatants were then collected and incubated with IKKα/β antibody and protein A/G plus agarose beads at 4° C. overnight. Precipitates were washed with an IP buffer and a kinase buffer. IKK kinase activity was assayed by adding 1 μg of GST-IκBα fusion protein (Santa Cruz) and 200 μM ATP in 20 μL kinase buffer for 30 minutes at 30° C. and then stopped by mixing with the Laemmli's loading buffer and heated at 100° C. for 5 minutes. Samples were then subjected to immunoblotting.
# Assays were carried out in RAW 264.7 cells to examine the effects of dLGG on levels of IKKα/β and phospho-IKKα/β, the upstream kinase of IκBα in the NF-κB signaling pathway, and the upstream kinase, IRAK-1, for activating IKK complex. Cells were pretreated with various concentrations of dLGG for 1 hours, followed by LPS stimulation (1 μg/mL for 30 min). Specific IKKα/β and the phosphorylated forms of IKKα/β or GST-IκBα were detected by immunoblotting. IKKα/β immunoprecipitates were prepared from total cell lysate using anti-IKKα/β antibody and subsequently subjected to IKK kinase assay using GST-IκBα as substrate. […] (nuclear protein) and α-tubulin (cytosolic protein) were used as loading controls.
# IKK enzymatic activity was also determined to confirm whether it was correlated to the inhibition of IκBα phosphorylation by dLGG. Immunoprecipitated IKK proteins obtained from control cells (±LPS/−dLGG) or cells treated with LPS+dLGG were assayed for phosphorylation of GST-IκBα. The LPS-induced enzymatic phosphorylation of IκBα (p-IκBα) was decreased approximately 42% when treated with 75 μg/mL dLGG. The levels of immunoprecipitated IKK proteins were not affected by dLGG.
# iNOS mRNA = iNOS mRNA expression (RT-PCR) in LPS-stimulated RAW264.7 cells; type: cell-based, murine; details: LPS 1 μg/mL 6 h
# Protocol: as §1
# RAW264.7 cells were treated with various concentrations of dLGG for 1 hour, then incubated with LPS (1 μg/mL) for 6 hours. Total cellular RNA was subjected to RT-PCR, and final PCR product resolved by 1% agarose gel electrophoresis.
# NO = test: Plasma nitrite concentration in SNP-treated mice; type: in vivo, Female ICR mice; details: topical pretreatment 30 min before SNP; dLGG 10 mg/site, PTIO 3.5 mg/site
# Protocol: Female ICR mice were topically treated on their shaven back area of a 2-cm diameter (3.14 cm^2/site/mouse) with vehicle control (acetone), SNP (positive control), or with dLGG or PTIO for 30 minutes before SNP application. Mouse plasma samples were subjected to determine the nitrite content followed a published method (Moshage et al. Clin Chem 1995; 41:892-6).
# To examine the capability of dLGG to scavenge NO in vivo, the plasma NO concentration in SNP-insulted mice was determined with or without pretreatment with dLGG. Female ICR mice were transdermally treated with 200 μL acetone (vehicle control) or SNP (5.96 mg/site) only for 15 minutes, or pre-treated with dLGG (10 mg/site) or PTIO (3.5 mg/site) for 30 minutes before SNP treatment.
structure (smiles),measurement,setting,value
"CC/C=C\C/C=C\C/C=C\CCCCCCCC(=O)OC[C@H](CO[C@@H]1O[C@H](CO)[C@H](O)[C@H](O)[C@H]1O)OC(=O)CCCCCCC/C=C\C/C=C\C/C=C\CC [dLGG, 1,2-di-O-α-linolenoyl-3-O-β-galactopyranosyl-sn-glycerol]",Reduction of LPS-induced PGE2 levels,PGE2 production,37-58%
same,Binding of FITC-labeled LPS to the test macrophages,[1],dose-dependently suppress
same,Inhibition of COX-2 mRNA expression,COX-2 mRNA,~29%
same,"NF-κB•DNA complex, of LPS alone",NF-κB•DNA complex; 25 μg/mL,77%
same,"NF-κB•DNA complex, of LPS alone",NF-κB•DNA complex; 50 μg/mL,23%
same,NF-κB•DNA complex level,NF-κB•DNA complex; LPS 60 min,0.43 times that of LPS alone (1.0)
same,NF-κB•DNA complex level,NF-κB•DNA complex; LPS 90 min,0.30 times that of LPS alone (1.0)
same,NF-κB•DNA complex level,NF-κB•DNA complex; LPS 120 min,0.16 times that of LPS alone (1.0)
same,NF-κB•DNA complex level,NF-κB•DNA complex; LPS 180 min,0.01 times that of LPS alone (1.0)
same,Inhibition of NF-κB•DNA complex formation (structure-activity study),"NF-κB•DNA complex; 100 μM, LPS 1 μg/mL, 90 min",almost completely inhibited
same,"Decrease of LPS-induced enzymatic phosphorylation of IκBα (IKK kinase assay, GST-IκBα)",IKKα/β; 75 μg/mL,approximately 42%
same,IRAK-1 degradation in LPS-stimulated macrophages,IKKα/β; LPS-stimulated,inhibited
same,IKKα/β levels,"IKKα/β; dLGG 1 h, LPS 1 μg/mL 30 min",little affected
same,LPS-induced phosphorylation of IKKα/β,"IKKα/β; dLGG 1 h, LPS 1 μg/mL 30 min",inhibited
same,Reduction of iNOS mRNA expression,iNOS mRNA,approximately 56%
same,SNP-induced increase of nitrite plasma concentration,NO,suppressed
